Reference: PubChem BioAssay AID330 (DTP/NCI, 2004)
Where “and” joins values, the source holds several entries; their conditions need not be identical. Equal entries are not always repeated. Toxic doses and inconclusive results are not listed.

Tested on: P388 leukemia ip, CD2F1 mice, survival T/C
Assay: NCI In Vivo Anticancer Drug Screen. Data for tumor model P388 Leukemia (intraperitoneal) in CD2F1 (CDF1) mice
Settings: endpoint: median survival time, higher = longer survival
How it was run: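 Mice carrying the transplanted tumor received test compound or vehicle. Survival was recorded in each group, and the value is the treated-group measurement divided by that of the vehicle-treated control group.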

[1] = dose: 50.0 mg/kg/injection, schedule: Q01DX005 (ip), vehicle: Klucel (hydroxypropylcellulose) (HPC)
[2] = dose: 100.0 mg/kg/injection, schedule: Q01DX005 (ip), vehicle: Klucel (hydroxypropylcellulose) (HPC)
[3] = dose: 200.0 mg/kg/injection, schedule: Q01DX005 (ip), vehicle: Klucel (hydroxypropylcellulose) (HPC)
[4] = dose: 50.0 mg/kg/injection, schedule: Q01DX009 (ip), vehicle: Klucel (hydroxypropylcellulose) (HPC)
[5] = dose: 100.0 mg/kg/injection, schedule: Q01DX009 (ip), vehicle: Klucel (hydroxypropylcellulose) (HPC)
[6] = dose: 50.0 mg/kg/injection, schedule: Q04DX003 (ip), vehicle: saline with Tween-80
[7] = dose: 100.0 mg/kg/injection, schedule: Q04DX003 (ip), vehicle: saline with Tween-80
[8] = dose: 50.0 mg/kg/injection, schedule: Q01DX005 (ip), vehicle: saline with Tween-80
[9] = dose: 100.0 mg/kg/injection, schedule: Q01DX005 (ip), vehicle: saline with Tween-80
[10] = dose: 200.0 mg/kg/injection, schedule: Q01DX005 (ip), vehicle: saline with Tween-80
[11] = dose: 60.0 mg/kg/injection, schedule: Q01DX005 (ip), vehicle: saline
[12] = dose: 120.0 mg/kg/injection, schedule: Q01DX005 (ip), vehicle: saline
[13] = dose: 240.0 mg/kg/injection, schedule: Q01DX005 (ip), vehicle: saline
[14] = dose: 12.5 mg/kg/injection, schedule: Q01DX005 (ip), vehicle: Klucel (hydroxypropylcellulose) (HPC)
[15] = dose: 25.0 mg/kg/injection, schedule: Q01DX005 (ip), vehicle: Klucel (hydroxypropylcellulose) (HPC)
[16] = dose: 100.0 mg/kg/injection, schedule: Q01DX009 (ip), vehicle: saline with Tween-80
[17] = dose: 200.0 mg/kg/injection, schedule: Q01DX009 (ip), vehicle: saline with Tween-80
[18] = dose: 200.0 mg/kg/injection, schedule: Q04DX003 (ip), vehicle: saline with Tween-80
[19] = dose: 50.0 mg/kg/injection, schedule: Q01DX009 (ip), vehicle: saline with Tween-80

Compound: Cc1ccc(C2=C/C(=C/c3ccc(N(CCC#N)CCC#N)cc3)C(=O)O2)c(C)c1
- T/C (dose: 100.0 mg/kg/injection, schedule: Q01DX001 (ip), vehicle: saline with Tween-80): 95 % of control
- T/C (dose: 200.0 mg/kg/injection, schedule: Q01DX001 (ip), vehicle: saline with Tween-80): 95 % of control
- T/C (dose: 400.0 mg/kg/injection, schedule: Q01DX001 (ip), vehicle: saline with Tween-80): 87 % of control

Compound: COc1ccccc1/C=C1/C(=O)N(c2ccc([N+](=O)[O-])cc2)N=C1C
- T/C [1]: 102 % of control
- T/C [2]: 103 % of control
- T/C [3]: 101 % of control

Compound: Cc1nc(-c2ccccc2)oc1C(N)=O
- T/C [4]: 108 % of control
- T/C [5]: 110 % of control

Compound: Cc1cc(C)nc(NCCCNc2nc(C)cc(C)n2)n1
- T/C [1]: 101 % of control
- T/C [2]: 98 % of control
- T/C [3]: 100 % of control

Compound: COc1cc(/C=C(/C)[N+](=O)[O-])cc(Br)c1OC
- T/C (dose: 25.0 mg/kg/injection, schedule: Q04DX003 (ip), vehicle: saline with Tween-80): 108 % of control
- T/C [6]: 109 % of control
- T/C [7]: 109 % of control

Compound: O=C1C/C(=N\O)CON1c1ccccc1
- T/C (dose: 100.0 mg/kg/injection, schedule: Q01DX002 (ip), vehicle: Klucel (hydroxypropylcellulose) (HPC)): 106 % of control
- T/C (dose: 200.0 mg/kg/injection, schedule: Q01DX002 (ip), vehicle: Klucel (hydroxypropylcellulose) (HPC)): 98 % of control
- T/C (dose: 400.0 mg/kg/injection, schedule: Q01DX002 (ip), vehicle: Klucel (hydroxypropylcellulose) (HPC)): 90 % of control

Compound: Oc1cccc(/C=N/N=C/c2cccc(O)c2O)c1O
- T/C [4]: 96 % of control
- T/C [5]: 93 % of control

Compound: Cc1nc2ccccc2c(=O)n1-c1ccc(-c2n[nH]c(=S)n2-c2ccccc2)cc1
- T/C [1]: 105 % of control
- T/C [2]: 110 % of control
- T/C [3]: 102 % of control

Compound: CCCCOCc1c(-c2ccccc2)sc2ccccc2c1=O
- T/C [8]: 97 % of control
- T/C [9]: 102 % of control
- T/C [10]: 100 % of control

Compound: COC1=CC(=O)C=C(CO)C1=O
- T/C (dose: 1.56 mg/kg/injection, schedule: Q01DX009 (ip), vehicle: saline): 104 % of control
- T/C (dose: 3.12 mg/kg/injection, schedule: Q01DX009 (ip), vehicle: saline): 107 % of control
- T/C (dose: 6.25 mg/kg/injection, schedule: Q01DX009 (ip), vehicle: saline): 111 % of control and 94 % of control

Compound: COC(=O)C1Cc2[nH]cnc2C(c2c(CO)cnc(C)c2O)N1 (configuration not stated)
- T/C [1]: 104 % of control
- T/C [2]: 104 % of control

Compound: Cc1csc(=S)n1O
- T/C [11]: 101 % of control
- T/C [12]: 100 % of control
- T/C [13]: 101 % of control

Compound: O=C(c1cc2c(cc1Br)OCO2)N1CCc2ccccc21
- T/C (dose: 50.0 mg/kg/injection, schedule: Q01DX009 (ip), vehicle: other): 93 % of control
- T/C (dose: 100.0 mg/kg/injection, schedule: Q01DX009 (ip), vehicle: other): 105 % of control
- T/C (dose: 200.0 mg/kg/injection, schedule: Q01DX009 (ip), vehicle: other): 109 % of control

Compound: CCN(CC)CCNc1ccc(COC(=O)NC)c2oc3ccc(OS(=O)(=O)c4ccc(C)cc4)cc3c(=O)c12
- T/C (dose: 25.0 mg/kg/injection, schedule: Q01DX005 (ip), vehicle: water): 89 % of control
- T/C (dose: 50.0 mg/kg/injection, schedule: Q01DX005 (ip), vehicle: water): 93 % of control
- T/C (dose: 100.0 mg/kg/injection, schedule: Q01DX005 (ip), vehicle: water): 90 % of control
- T/C (dose: 200.0 mg/kg/injection, schedule: Q01DX005 (ip), vehicle: water): 93 % of control

Compound: COc1cc([C@@H]2c3cc4c(cc3[C@H](OC(=O)c3ccccc3C(=O)O)[C@H]3COC(=O)[C@H]23)OCO4)cc(OC)c1OC
- T/C [14]: 119 % of control
- T/C [15]: 119 % of control

Compound: Cc1c[nH]c2nc(C)n(-c3ccccc3)c(=N)c12
- T/C [14]: 100 % of control
- T/C [15]: 93 % of control
- T/C [1]: 101 % of control and 96 % of control

Compound: C=CCNCCN1CCN(CCCN2c3ccccc3Sc3ccc(C(F)(F)F)cc32)CC1
- T/C (dose: 25.0 mg/kg/injection, schedule: Q04DX003 (ip), vehicle: saline): 91 % of control
- T/C (dose: 50.0 mg/kg/injection, schedule: Q04DX003 (ip), vehicle: saline): 119 % of control and 97 % of control

Compound: NS(=O)(=O)c1ccc(N=NC2C(=O)N(c3ccc(Cl)cc3)C(=S)N(c3ccc(Cl)cc3)C2=O)cc1
- T/C (dose: 12.5 mg/kg/injection, schedule: Q01DX005 (ip), vehicle: saline): 100 % of control
- T/C (dose: 25.0 mg/kg/injection, schedule: Q01DX005 (ip), vehicle: saline): 100 % of control
- T/C (dose: 50.0 mg/kg/injection, schedule: Q01DX005 (ip), vehicle: saline): 108 % of control and 118 % of control

Compound: NC(Cc1cccs1)C(=O)O (configuration not stated)
- T/C [16]: 100 % of control
- T/C [7]: 109 % of control
- T/C [17]: 100 % of control
- T/C [18]: 100 % of control
- T/C (dose: 400.0 mg/kg/injection, schedule: Q01DX009 (ip), vehicle: saline with Tween-80): 100 % of control
- T/C (dose: 400.0 mg/kg/injection, schedule: Q04DX003 (ip), vehicle: saline with Tween-80): 100 % of control

Compound: O=C1CCC2(CC(Br)C(=O)c3ccccc32)C(=O)N1 (configuration not stated)
- T/C (dose: 60.0 mg/kg/injection, schedule: Q01DX005 (ip), vehicle: Klucel (hydroxypropylcellulose) (HPC)): 113 % of control
- T/C (dose: 120.0 mg/kg/injection, schedule: Q01DX005 (ip), vehicle: Klucel (hydroxypropylcellulose) (HPC)): 113 % of control

Compound: C[Si]1(C)N[Si](C)(C)N([Si](C)(C)C)[Si](C)(C)N1
- T/C [8]: 93 % of control
- T/C [9]: 101 % of control
- T/C [10]: 109 % of control

Compound: CC(C)C(NC(=O)OC(C)(C)C)C(=O)ON1C(=O)CCC1=O (configuration not stated)
- T/C [19]: 118 % of control
- T/C [16]: 111 % of control
- T/C [17]: 99 % of control

Compound: ICCCCCCCCCC[n+]1ccc2ccccc2c1
- T/C [8]: 107 % of control

Compound: COc1ccc(/C=N/N2CN(C(C)C(=O)O)B(N(CCO)CCO)N=C2N)cc1OC (configuration not stated)
- T/C [11]: 104 % of control
- T/C [12]: 107 % of control
- T/C [13]: 107 % of control

Compound: NC(=S)N/N=C/C=C/c1ccccc1
- T/C (dose: 25.0 mg/kg/injection, schedule: Q04DX002 (ip), vehicle: Klucel (hydroxypropylcellulose) (HPC)): 96 % of control
- T/C (dose: 50.0 mg/kg/injection, schedule: Q04DX002 (ip), vehicle: Klucel (hydroxypropylcellulose) (HPC)): 105 % of control
- T/C (dose: 100.0 mg/kg/injection, schedule: Q04DX002 (ip), vehicle: Klucel (hydroxypropylcellulose) (HPC)): 101 % of control

Compound: c1c2c(cc3c1OCO3)Cc1cc3c(cc1Cc1cc4c(cc1C2)OCO4)OCO3
- T/C [19]: 108 % of control
- T/C [16]: 108 % of control
- T/C [17]: 100 % of control

Compound: CC(C)CC(=O)O[C@@H]1OC=C(COC2OC(CO)C(O)C(O)C2O)[C@H]2CC(=O)[C@@H](C)[C@@H]12 (some centres not stated)
- T/C (dose: 8.0 mg/kg/injection, schedule: Q01DX005 (ip), vehicle: saline): 118 % of control
- T/C (dose: 16.0 mg/kg/injection, schedule: Q01DX005 (ip), vehicle: saline): 116 % of control
- T/C (dose: 32.0 mg/kg/injection, schedule: Q01DX005 (ip), vehicle: saline): 107 % of control
- T/C (dose: 64.0 mg/kg/injection, schedule: Q01DX005 (ip), vehicle: saline): 110 % of control

Compound: Clc1cccc(O[Si]23OCCN(CCO2)CCO3)c1
- T/C [1]: 109 % of control
- T/C [2]: 106 % of control
- T/C [3]: 102 % of control

Compound: CC(=O)NC1c2ccccc2CCC1OC(C)=O (configuration not stated)
- T/C [8]: 99 % of control
- T/C [9]: 99 % of control
- T/C [10]: 99 % of control

Compound: CC1c2ccccc2OS(=O)N1C (configuration not stated)
- T/C [4]: 104 % of control
- T/C [5]: 110 % of control
- T/C (dose: 200.0 mg/kg/injection, schedule: Q01DX009 (ip), vehicle: Klucel (hydroxypropylcellulose) (HPC)): 111 % of control

Compound: N#CC1C(=O)NC(=O)C(C#N)C12CCCCC2 (configuration not stated)
- T/C [6]: 105 % of control
- T/C [7]: 100 % of control
- T/C [18]: 105 % of control

Compound: Cc1c(O)c2ccccc2c2c1sc(NCCO)[n+]2C
- T/C (dose: 15.0 mg/kg/injection, schedule: Q01DX005 (ip), vehicle: saline with Tween-80): 100 % of control
- T/C (dose: 30.0 mg/kg/injection, schedule: Q01DX005 (ip), vehicle: saline with Tween-80): 105 % of control
- T/C (dose: 60.0 mg/kg/injection, schedule: Q01DX005 (ip), vehicle: saline with Tween-80): 98 % of control and 99 % of control

Compound: CCN(C(=O)CCl)c1ccccc1C
- T/C [6]: 100 % of control
- T/C [7]: 100 % of control

Compound: c1ccc(P(CCNCCP(c2ccccc2)c2ccccc2)c2ccccc2)cc1
- T/C [8]: 105 % of control
- T/C [9]: 109 % of control
